# Measured values reported in patent US8496913B2, “Compressed chewing gum tablet” (Gumlink A/S, priority 2005, dated 2013).
# System: plaque
# Settings: in vivo
smiles,measurement,value
CC(=O)[O-].CC(=O)[O-].[Zn+2] [zinc acetate],effect on plaque in hard-to-reach places,with high efficiency
